According to publication PMC2792720, “Binding of NIR-conPK and NIR-6T to Astrocytomas and Microglial Cells: Evidence for a Protein Related to TSPO” (PLoS ONE, 2009):

Molecular target: T1, TSPO (Mus musculus, UniProt P50637)
T1 construct: mitochondrial-enriched membranes from DBT cells were prepared by lysing cells with ice-cold homogenization buffer; endogenous in cells; host or cells: DBT mouse astrocytoma cells (mitochondrial-enriched membranes / homogenates), untreated or cytokine-treated
Assay: Filtration radioligand binding assay, [^3H]-PK 11195 binding to DBT cell homogenates
Set-up: Bmax: unit not given here
Protocol: Enriched membranes were prepared according to [28]. Briefly, mitochondrial-enriched membranes from DBT cells were prepared by lysing cells with ice-cold homogenization buffer (50 mM Tris, 1 mM EDTA and 3 mM MgCl2), followed by dounce homogenization (five gentle strokes). Homogenates were centrifuged (40,000×g, 15 min, 4°C) and cell pellet resuspended in 0.5 ml homogenization buffer, re-homogenized by dounce (five gentle strokes while on ice) and centrifuged again (40,000×g, 15 min, 4°C). Cell pellets were stored at −80°C until further use. Radioligand binding assays were performed in silanized glass test tubes (Kimble Glass Inc.). The following components were added: 50 µl of non-radiolabeled DAA1106 or PK 11195, 50 µl of [N-methyl-^3H]-PK 11195 (PerkinElmer, Boston MA; 250 µCi, 84.8 Ci/mmol) and 100 µl of protein (50 µg, which started the incubation) for a total volume of 200 µl in binding buffer (50 mM Tris, 1 mM EDTA, 3 mM MgCl2 and 0.1% BSA), all of which was placed in a water bath (30°C) with mild agitation for 1 hr. Incubation was stopped by rapid filtration and rinsing with ice-cold binding buffer, using the Brandel harvester (Gaithersburg, MD) and Whatman GFB filter paper (Brandel, Gaithersburg MD). Filters were then transferred to 7 ml glass scintillation vials (VWR, West Chester PA). Five ml of Ecoscint XR scintillation fluid (National Diagnostics, Atlanta, GA) was added, followed by 10 sec vortexing and ∼18 hrs incubation at room temperature prior to determining the radioactivity with a scintillation counter (PerkinElmer, Boston MA).
Data are expressed as n = number of determinations (three per independent experiment). Statistical analysis, Kd and Ki values were calculated using non-linear regression with a one binding site hyperbola, where X is the concentration of the ligand, Y is specific binding and Bmax and Kd are determined using this equation: Y = Bmax X/Kd+X calculated by GraphPad Prism 4.

Question: With `COc1ccc(OC)c(CN(C(C)=O)c2cc(F)ccc2Oc2ccccc2)c1` [DAA1106] as the compound, how does the Ki (DBT cell homogenates, read-out: Ki, competition for [^3H]-PK 11195 binding) read?
Answer: 0.2 nM

Question: With `CCC(C)N(C)C(=O)c1cc2ccccc2c(-c2ccccc2Cl)n1` (centres unmarked) [PK 11195] as the compound, how does the EC50 (DBT cell homogenates, read-out: EC50, competition for [^3H]-PK 11195 binding) read?
Answer: 93 nM

Question: How did the “amount of TSPO detected with [^3H]-PK 11195 (Bmax)” value (DBT cell homogenates, untreated cells) turn out when `[3H]CN(C(=O)c1cc2ccccc2c(-c2ccccc2Cl)n1)C(C)CC` (centres unmarked) [[^3H]-PK 11195, [N-methyl-^3H]-PK 11195] was run?
Answer: 14 pmol of TSPO per gram of protein

Question: What about the Bmax (homogenates of DBT cells treated with IFNγ (100 Ui/ml), 18–24 hrs) of the same compound?
Answer: 17.0+/−2.6

Question: What about the Bmax (homogenates of DBT cells treated with IFNγ+TNFα, 18–24 hrs) of the same compound?
Answer: 17.6+/−2.4

Question: What about the Bmax (homogenates of DBT cells treated with TGFβ2 (1 ng/ml), 18–24 hrs) of the same compound?
Answer: 22.1+/−4.7

Question: And the Bmax (homogenates of DBT cells treated with TNFα (5 ng/ml), 18–24 hrs)?
Answer: 17.4+/−2.9

Question: And the Bmax (homogenates of DBT cells, Control (vehicle, 18–24 hrs))?
Answer: 14.0+/−1.1
